Data set [1] deals with stationary phase B. burgdorferi persisters (strain B31). The experiment in a line: SYBR Green I/PI viability assay (plate reader), FDA-approved drug library screen. As to conditions: for Ratio of Green/Red fluorescence, Primary screening / Ratio of Green/Red fluorescence, Rescreening (first column) / Ratio of Green/Red fluorescence, Rescreening (second column) / Residual viable cells (regression equation, SYBR Green I/PI assay): 50 μM; for Ratio of Green/Red fluorescence, Primary screening / Ratio of Green/Red fluorescence, Rescreening (first column) / Ratio of Green/Red fluorescence, Rescreening (second column): 7 days, stationary phase; for viability at 50 µM: Borreliella burgdorferi, 168 h, read-out: Residual viable cells (regression equation, SYBR Green I/PI assay); for Residual viable cells (regression equation, SYBR Green I/PI assay): 7-day old stationary phase cells treated for 7 days.

Data set [2] concerns round body form of B. burgdorferi. As to the kind of experiment: SYBR Green I/PI assay on amoxicillin-induced round body form. As to conditions: for viability at 50 µM: Borreliella burgdorferi, 168 h, read-out: Residual viable cells (SYBR Green I/PI assay).

Where a name gives a salt, the structure may show the parent alone.

Results on 29 compounds are retold here after patent US20170058314A1, “NOVEL METHODOLOGY FOR IDENTIFYING ANTI-PERSISTER ACTIVITY AND ANTIMICROBIAL SUSCEPTIBILITY FOR BORRELIA BURGDORFERI AND OTHER BACTERIA” (priority 2014, published 2017).

Consider `CCN(CC)Cc1cc(Nc2ccnc3cc(Cl)ccc23)ccc1O` [Amodiaquin], for which, in data set [1], the “Ratio of Green/Red fluorescence, Primary screening” value worked out at 6.79; the “Ratio of Green/Red fluorescence, Rescreening (first column)” value turned out to be 6.44; the “Ratio of Green/Red fluorescence, Rescreening (second column)” value worked out at 6.85; the viability at 50 µM amounted to 45%.
In the case of `C[C@@H]1[C@H](O)[C@@H](C)/C=C/C=C/C=C/C=C/C=C/C=C/C=C/[C@H](O[C@@H]2O[C@H](C)[C@@H](O)[C@H](N)[C@@H]2O)C[C@@H]2O[C@](O)(C[C@@H](O)C[C@@H](O)[C@H](O)CC[C@@H](O)C[C@@H](O)CC(=O)O[C@H]1C)C[C@H](O)[C@H]2C(=O)O` [Amphotericin B], in data set [1], the “Residual viable cells (regression equation, SYBR Green I/PI assay)” value was 50%; the “Ratio of Green/Red fluorescence, Primary screening” value is reported as 7.14; the “Ratio of Green/Red fluorescence, Rescreening (first column)” value is 6.88; the “Ratio of Green/Red fluorescence, Rescreening (second column)” value stood at 6.87.
With `C[C@H]1[C@H](NC(=O)/C(=N\OC(C)(C)C(=O)O)c2csc(N)n2)C(=O)N1S(=O)(=O)O` [Aztreonam], the viability at 50 µM in data set [2] stood at 34%. Moreover, in data set [2] (round body form, 50 μM, 7 days), the “Ratios of green/red fluorescence, Primary screening” value is on record as 6.16; the “Ratios of green/red fluorescence, Rescreening (first column)” value was 6.38; the “Ratios of green/red fluorescence, Rescreening (second column)” value came to 6.33.
With `[Bi]` [Bismuth], in data set [1], the “Residual viable cells (regression equation, SYBR Green I/PI assay)” value came to 48%; the “Ratio of Green/Red fluorescence, Primary screening” value was 6.94; the “Ratio of Green/Red fluorescence, Rescreening (first column)” value amounted to 6.82; the “Ratio of Green/Red fluorescence, Rescreening (second column)” value was found to be 6.92.
`Cn1nnnc1SCC1=C(C(=O)O)N2C(=O)[C@@H](NC(=O)[C@H](O)c3ccccc3)[C@H]2SC1` [Cefamandole]: in data set [1], the “Ratio of Green/Red fluorescence, Primary screening” value was 6.71; the “Ratio of Green/Red fluorescence, Rescreening (first column)” value is 7.73; the “Ratio of Green/Red fluorescence, Rescreening (second column)” value came to 6.52; the viability at 50 µM was determined as 50%.
Turning to `Cc1nnc(SCC2=C(C(=O)O)N3C(=O)[C@@H](NC(=O)Cn4cnnn4)[C@H]3SC2)s1` [Cefazolin], the viability at 50 µM in data set [2] was found to be 34%. In data set [2] (round body form, 50 μM, 7 days), the “Ratios of green/red fluorescence, Primary screening” value is recorded as 6.23; the “Ratios of green/red fluorescence, Rescreening (first column)” value is on record as 6.34; the “Ratios of green/red fluorescence, Rescreening (second column)” value came out at 6.29.
Take `C=CC1=C(C(=O)O)N2C(=O)[C@@H](NC(=O)/C(=N\O)c3csc(N)n3)[C@H]2SC1` [Cefdinir]: in data set [1], the “Ratio of Green/Red fluorescence, Primary screening” value was determined as 6.88; the “Ratio of Green/Red fluorescence, Rescreening (first column)” value is recorded as 7.51; the “Ratio of Green/Red fluorescence, Rescreening (second column)” value worked out at 6.29; the viability at 50 µM was determined as 48%.
The corresponding values for `CO/N=C(\C(=O)N[C@@H]1C(=O)N2C(C(=O)[O-])=C(C[N+]3(C)CCCC3)CS[C@H]12)c1csc(N)n1` [Cefepime] are 6.67, 7.16, 6.45 and 44%.
`C=CC1=C(C(=O)O)N2C(=O)[C@@H](NC(=O)/C(=N\OCC(=O)O)c3csc(N)n3)[C@H]2SC1` [Cefixime]: the viability at 50 µM in data set [2] is 34%. Besides, in data set [2] (round body form, 50 μM, 7 days), the “Ratios of green/red fluorescence, Primary screening” value is listed as 6.41; the “Ratios of green/red fluorescence, Rescreening (first column)” value is 6.21; the “Ratios of green/red fluorescence, Rescreening (second column)” value came out at 6.27.
Regarding `O=C(O)C1=C(CSc2nnnn2CS(=O)(=O)O)CS[C@@H]2[C@H](NC(=O)[C@H](O)c3ccccc3)C(=O)N12` [Cefonicid], in data set [1], the “Ratio of Green/Red fluorescence, Primary screening” value was 6.86; the “Ratio of Green/Red fluorescence, Rescreening (first column)” value amounted to 7.54; the “Ratio of Green/Red fluorescence, Rescreening (second column)” value was determined as 6.07; the viability at 50 µM stood at 46%.
For the compound `NCc1ccccc1CC(=O)N[C@@H]1C(=O)N2C(C(=O)O)=C(CSc3nnnn3CC(=O)O)CS[C@H]12` [Ceforanide], in data set [1], the “Ratio of Green/Red fluorescence, Primary screening” value stood at 6.89; the “Ratio of Green/Red fluorescence, Rescreening (first column)” value is 7.49; the “Ratio of Green/Red fluorescence, Rescreening (second column)” value stood at 6.33; the viability at 50 µM was 48%.
For the compound `CC(C)(O/N=C(\C(=O)N[C@@H]1C(=O)N2C(C(=O)[O-])=C(C[n+]3ccccc3)CS[C@H]12)c1csc(N)n1)C(=O)O` [Ceftazidime], the viability at 50 µM in data set [2] was 34%. Moreover, in data set [2] (round body form, 50 μM, 7 days), the “Ratios of green/red fluorescence, Primary screening” value was found to be 6.20; the “Ratios of green/red fluorescence, Rescreening (first column)” value was 6.34; the “Ratios of green/red fluorescence, Rescreening (second column)” value is on record as 6.37.
For the compound `CO/N=C(\C(=O)N[C@@H]1C(=O)N2C(C(=O)O)=CCS[C@H]12)c1csc(N)n1` [Ceftizoxime], in data set [1], the “Ratio of Green/Red fluorescence, Primary screening” value was 6.94; the “Ratio of Green/Red fluorescence, Rescreening (first column)” value is given as 6.83; the “Ratio of Green/Red fluorescence, Rescreening (second column)” value was 7.03; the viability at 50 µM is 49%.
As to `CN(C)[C@@H]1C(O)=C(C(N)=O)C(=O)[C@@]2(O)C(O)=C3C(=O)c4c(O)ccc(Cl)c4[C@@](C)(O)[C@H]3C[C@@H]12` [Chlortetracycline], the viability at 50 µM in data set [2] was 31%. Moreover, in data set [2] (round body form, 50 μM, 7 days), the “Ratios of green/red fluorescence, Primary screening” value is on record as 6.20; the “Ratios of green/red fluorescence, Rescreening (first column)” value is recorded as 6.36; the “Ratios of green/red fluorescence, Rescreening (second column)” value was determined as 6.18.
The corresponding values for `C[C@@H]1O[C@@H]1P(=O)(O)O` [Fosfomycin] are 31%, 6.39, 6.12 and 6.16.
Taken in the same sequence, the figures for `C=C1c2c(Cl)ccc(O)c2C(=O)C2=C(O)[C@]3(O)C(=O)C(C(N)=O)=C(O)[C@@H](N(C)C)[C@@H]3[C@@H](O)[C@H]12` [Meclocycline] were 33%, 6.52, 6.23 and 6.09.
Regarding `O=[N+]([O-])c1ccc(/C=N/O)o1` [Nifuroxime], in data set [2], the viability at 50 µM stood at 30%. Besides, in data set [2] (round body form, 50 μM, 7 days), the “Ratios of green/red fluorescence, Primary screening” value turned out to be 6.10; the “Ratios of green/red fluorescence, Rescreening (first column)” value came to 6.32; the “Ratios of green/red fluorescence, Rescreening (second column)” value is on record as 6.22.
For `C=C[C@H]1C[N@@]2CC[C@H]1C[C@H]2[C@H](O)c1ccnc2ccc(OC)cc12` [Quinine hydrobromide], in data set [1], the “Ratio of Green/Red fluorescence, Primary screening” value was found to be 7.00; the “Ratio of Green/Red fluorescence, Rescreening (first column)” value stood at 6.85; the “Ratio of Green/Red fluorescence, Rescreening (second column)” value was 6.88; the viability at 50 µM was 50%.
Regarding `CN(C)[C@@H]1C(O)=C(C(=O)NCN2CCCC2)C(=O)[C@@]2(O)C(O)=C3C(=O)c4c(O)cccc4[C@@](C)(O)[C@H]3C[C@@H]12` [Rolitetracycline], the viability at 50 µM in data set [2] is 35%. Moreover, in data set [2] (round body form, 50 μM, 7 days), the “Ratios of green/red fluorescence, Primary screening” value was 6.23; the “Ratios of green/red fluorescence, Rescreening (first column)” value is 6.35; the “Ratios of green/red fluorescence, Rescreening (second column)” value is 6.37.
On to `CN[C@@H]1[C@@H](O)[C@@H](O[C@@H]2[C@@H](O)[C@H](O[C@H]3OC(CN)=CC[C@H]3N)[C@@H](N)C[C@H]2N)OC[C@]1(C)O` [Sisomicin], for which the viability at 50 µM in data set [2] was 33%. In addition, in data set [2] (round body form, 50 μM, 7 days), the “Ratios of green/red fluorescence, Primary screening” value is recorded as 6.27; the “Ratios of green/red fluorescence, Rescreening (first column)” value stood at 6.12; the “Ratios of green/red fluorescence, Rescreening (second column)” value was found to be 6.45.
Taken in the same sequence, the figures for `CC(=O)NS(=O)(=O)c1ccc(N)cc1` [Sulfacetamide] were 29%, 6.26, 6.14 and 6.20.
Take `COc1cnc(NS(=O)(=O)c2ccc(N)cc2)nc1` [Sulfameter]: in data set [1], the “Ratio of Green/Red fluorescence, Primary screening” value turned out to be 7.13; the “Ratio of Green/Red fluorescence, Rescreening (first column)” value is reported as 7.46; the “Ratio of Green/Red fluorescence, Rescreening (second column)” value worked out at 6.98; the viability at 50 µM is 54%. The “activity against stationary phase B. burgdorferi (words; SYBR Green I/PI assay)” value in data set [1] (FDA drug screen) is reported as “effective”.
For the compound `COc1ccc(NS(=O)(=O)c2ccc(N)cc2)nn1` [Sulfamethoxypyridazine], the viability at 50 µM in data set [2] amounted to 30%. Moreover, in data set [2] (round body form, 50 μM, 7 days), the “Ratios of green/red fluorescence, Primary screening” value turned out to be 6.20; the “Ratios of green/red fluorescence, Rescreening (first column)” value is 6.07; the “Ratios of green/red fluorescence, Rescreening (second column)” value is listed as 6.34.
`Nc1ccc(S(=O)(=O)O)cc1` [Sulfanilate]: in data set [2] (round body form, 50 μM, 7 days), the “Ratios of green/red fluorescence, Primary screening” value is reported as 6.49; the “Ratios of green/red fluorescence, Rescreening (first column)” value is on record as 6.03; the “Ratios of green/red fluorescence, Rescreening (second column)” value is recorded as 6.40; the “Residual viable cells (SYBR Green I/PI assay)” value was found to be 34%.
`Nc1ccc(S(=O)(=O)Nc2nccs2)cc1` [Sulfathiazole]: in data set [2], the viability at 50 µM was determined as 31%. In data set [2] (round body form, 50 μM, 7 days), the “Ratios of green/red fluorescence, Primary screening” value is recorded as 6.38; the “Ratios of green/red fluorescence, Rescreening (first column)” value was 6.18; the “Ratios of green/red fluorescence, Rescreening (second column)” value came out at 6.17.
Consider `CC1(C)S[C@@H]2[C@H](NC(=O)[C@H](C(=O)O)c3ccsc3)C(=O)N2[C@H]1C(=O)O` [Ticarcillin], for which, in data set [1], the “Ratio of Green/Red fluorescence, Primary screening” value is on record as 6.82; the “Ratio of Green/Red fluorescence, Rescreening (first column)” value is given as 6.72; the “Ratio of Green/Red fluorescence, Rescreening (second column)” value amounted to 6.93; the viability at 50 µM amounted to 46%.
Regarding `CCS(=O)(=O)CCn1c([N+](=O)[O-])cnc1C` [Tinidazole], the viability at 50 µM in data set [2] was 33%. Also, in data set [2] (round body form, 50 μM, 7 days), the “Ratios of green/red fluorescence, Primary screening” value was 6.24; the “Ratios of green/red fluorescence, Rescreening (first column)” value was determined as 6.21; the “Ratios of green/red fluorescence, Rescreening (second column)” value was 6.36.
On to `C[C@H]1COc2c(N3CCN(C)CC3)c(F)cc3c(=O)c(C(=O)O)cn1c23` [levofloxacin], for which the viability at 50 µM in data set [2] came out at 41%.
For the compound Collistin, in data set [1], the “Ratio of Green/Red fluorescence, Primary screening” value is 7.15; the “Ratio of Green/Red fluorescence, Rescreening (first column)” value was determined as 7.26; the “Ratio of Green/Red fluorescence, Rescreening (second column)” value worked out at 7.23.
